Results from paper PMC7686308, “Overcoming the blood–brain barrier by Annexin A1-binding peptide to target brain tumours” (British Journal of Cancer, 2020).
Entries after “also recorded” stand apart in the source; their conditions may differ. Peptide text beside a SMILES is read from it. * marks the point of attachment. X1 = CCc1c2c(nc3ccc(OC(=O)C4CCC(CNC(=O)C5CCC(CN6C(=O)CC(*)C6=O)CC5)CC4)cc13)-c1cc3c(c(=O)n1C2)COC(=O)[C@]3(O)CC

Experiments:
B16-Luc brain tumours = experiment: B16-Luc brain tumour in C57BL/6 mice, Solutol HS15 formulation; assay type: in vivo, mouse (C57BL/6); details: 2.5 μmoles/kg i.v. daily for 7 days
Procedure: (§1) C6-Luc cells (5 × 10^4 suspended in 2 μl PBS) were injected into C57BL/6 mouse brain striatum using a stereotaxic frame as described previously.[21] Seven days later, mice underwent imaging for luciferase-expressing tumours. To do so, 100 μl luciferin (30 mg/ml PBS) was injected peritoneally. Mice were then anesthetised under isoflurane gas (20 ml/min) supplemented with oxygen (1 ml/min) and placed under a camera equipped with a Xenogen IVIS 200 imager at both the SBP and AIST animal facilities. Photon numbers were measured for 1–10 sec or for 1 min. For the dual-tumour model, C6-Luc cells were similarly injected into the brain of NOD-SCID mice. When a brain tumour became detectable by IVIS imager, C6-Luc cells (2 × 10^5 suspended in 100 μl PBS) were injected subcutaneously into the dorsal flank of the same mice. Photon numbers in brain and subcutaneous tumours were measured using the IVIS imager. The dual-tumour model was also produced using B16-Luc cells in the isogeneic C57BL/6 mouse. B16-Luc cells (5 × 10^4) were injected into brains of 8–10-weeks-old C57BL/6 female mice as described above for C6-Luc cells. When brain tumours became detectable, B16-Luc cells (2 × 10^5 cells) were injected subcutaneously into the dorsal flank of the same mouse.
(§2) IF7C(RR)-SN38 was injected intravenously through the tail vein into tumour-bearing mice once photon number of C6-Luc brain tumour reached 5 × 10^4, which usually occurred after 2 weeks. IF7C(RR)-SN38 (142 μg or 0.0567 μmoles) dissolved in 10 μl dimethylsulfoxide (DMSO) diluted with 100 μl of 50% Cremophore EL in ethanol plus 90 μl PBS was injected intravenously through the tail vein. As the average body weight of a mouse was 18 g, IF7C(RR)-SN38 dose per injection was 3.15 μmoles/kg. For B16-Luc brain tumours, IF7C(RR)-SN38 formulated with Cremophore EL was used at the dosage 7.0 μmoles/kg. Irinotecan (CPT-11), a water soluble SN38 prodrug, was dissolved in PBS and intravenously injected into mice at 50 μmoles /kg. In another set of experiments, brain tumour-bearing mice were treated with IF7C(RR)-SN38 (100 μg or 0.0412 μmoles) dissolved in 10 μl DMSO followed by dilution with 100 μl 10% Solutol HS15 in water. In that case, drug dosage was 2.5 μmoles/kg. Similarly formulated C(RR)-SN38 served as control.
Fig. 5 Therapeutic effect of IF7C(RR)-SN38 formulated with Solutol HS15. a Effect of IF7C(RR)-SN38 on B16-Luc brain tumours in C57BL/6 mice. b Effect of IF7C(RR)-SN38 on C6-Luc brain tumours in nude mice. In these experiments, drug dosage was 2.5 μmoles/kg each for IF7C(RR)-SN38 or C(RR)-SN38 (control), diluted with 10% Solutol HS15 in water and administered daily for 7 days. Note that the B16 brain tumours continued shrinking after ceasing administration of IF7C(RR)-SN38 in C57BL/6 mice. In each a and b, error bars denote means ± SEM. Statistical analysis was assessed by Student’s t-test.

[1] = tested on: C6-Luc brain and subcutaneous tumours; experiment: C6-Luc dual-tumour model in NOD-SCID mice; assay type: in vivo, rat tumour cells in NOD-SCID mice
Procedure: as §1, with “same mouse. […]” for “same mouse.”
Next, to compare drug dosages required to suppress growth of brain versus subcutaneous tumours in vivo, we undertook experiments with a dual-tumour model, in which a single SCID mouse received C6-Luc cells both in brain and under the skin (Fig. 4a, Supplementary Fig. 8A). Mice were then injected intravenously with IF7C(RR)-SN38 and tumour growth in both locations was assessed in vivo by photon number.
Fig. 4 Effect of IF7C(RR)-SN38 on the dual-tumour model mice. a Dual-tumour model was established with C6-Luc cells in NOD-SCID mice. […] Growth of B16-Luc cells were monitored as in a similar manner as in a, followed by intravenous injection with either IF7C(RR)-SN38 (7.0 μmoles/kg), irinotecan (CPT-11) (50 μmoles/kg) or buffer control daily for 6 days. […] Statistical analysis was assessed by Student’s t-test.

LL/2-Luc cells = experiment: LL/2-Luc rechallenge of brain tumour-recovered mice; assay type: in vivo, mouse (C57BL/6); details: mice recovered from brain B16-Luc tumours after treatment; 4 days after s.c. injection
Procedure: (§3) The presence of tumour-infiltrating lymphocytes, especially CD8^+ cytotoxic T cells, is correlated with better prognosis of various cancers.[32],[33] To assess possible involvement of cytotoxic T cells in an antitumour response by host mice, we injected two isogenic cell lines, B16-Luc and LL/2-Luc, into naïve C57BL/6 mice and also into C57BL/6 mice that recovered from brain B16-Luc tumours following IF7C(RR)-SN38 treatment. When these cells were injected subcutaneously in a naïve mouse, both lines formed tumours (Fig. 6a, left).
(§4) Fig. 6 Immunological rejection of the cancer cells from the mouse recovered from brain tumour by IF7C(RR)-SN38 therapy. a Growth of two syngeneic cancer lines in naïve and brain tumour-recovered mice 4 days after subcutaneous injection of LL/2-Luc or B16-Luc cells. b Immunohistochemistry with anti-CD8 antibody of B16-Luc cells at subcutaneous injection sites, 20 h after B16-Luc cell injection. Scale bars: 100 μm. c Quantitative analysis of CD8^+ cells in subcutaneous injection sites.

B16 cells = experiment: Cytotoxicity on B16 cells (CellTiter Glo); assay type: cell-based, mouse
Procedure: (§5) Drug concentration (OM) Drug concentration ( nM) […]
(§6) Supplementary Fig 7 . Cytotoxicity of peptide-conjugated SN38, free peptide s and unconjugated SN-38 and irinotecan (CPT-11) on C6 and B16 cells cultured in vitro. Rat glioma C6 and mouse melanoma B16 cells were treated with reagents shown along the top panels at the concentration indicated and cultured for 2 days. Cell viability was determined by a CellTiter Glo (Promega) assay. The IC50 of each reagent was determined using GraphPad Prism program. N.D.: not determined.

C6 cells = experiment: Cytotoxicity on C6 cells (CellTiter Glo); assay type: cell-based, rat
Procedure: as §5, §6

[2] = tested on: B16-Luc brain and subcutaneous tumours; experiment: B16-Luc dual-tumour model in C57BL/6 mice; assay type: in vivo, mouse (C57BL/6)
Procedure: as §1, §2
Fig. 4 Effect of IF7C(RR)-SN38 on the dual-tumour model mice. a Dual-tumour model was established with C6-Luc cells in NOD-SCID mice. C6-Luc cells were grown both in brain and under the skin of mice. When tumours in brain and subcutaneous grew by showing photon number more than 2×10^4, IF7C(RR)-SN38 (3.15 μmoles/kg) was injected intravenously daily through tail vein for 9 days. b Effect of IF7C(RR)-SN38 on a dual-tumour model with B16-Luc melanoma cells in C57BL/6 mice. Growth of B16-Luc cells were monitored as in a similar manner as in a, followed by intravenous injection with either IF7C(RR)-SN38 (7.0 μmoles/kg), irinotecan (CPT-11) (50 μmoles/kg) or buffer control daily for 6 days. The drug was diluted in Cremophore EL. In each a and b, error bars denote means ± SEM. Statistical analysis was assessed by Student’s t-test.

CD8+ T cells = experiment: CD8+ cell infiltration at B16-Luc injection site (immunohistochemistry); assay type: in vivo, mouse (C57BL/6); details: recovered C57BL/6 mice; 20 h after B16-Luc s.c. injection (naïve: 0.2 cells/HPF)
Procedure: as §4

B16-Luc cells = experiment: B16-Luc rechallenge of brain tumour-recovered mice; assay type: in vivo, mouse (C57BL/6); details: mice recovered from brain B16-Luc tumours after treatment; 4 days after s.c. injection
Procedure: as §3, §4

C6-Luc brain tumours = experiment: C6-Luc brain tumour in nude mice, Solutol HS15 formulation; assay type: in vivo, rat tumour cells in nude mice; details: 2.5 μmoles/kg i.v. daily for 7 days, 10% Solutol HS15
Procedure: as §1, with “When brain tumours became detectable, B16-Luc cells (2 × 10^5 cells) were injected subcutaneously into the dorsal flank of the same mouse.” left out
Fig. 5 Therapeutic effect of IF7C(RR)-SN38 formulated with Solutol HS15. a Effect of IF7C(RR)-SN38 on B16-Luc brain tumours in C57BL/6 mice. b Effect of IF7C(RR)-SN38 on C6-Luc brain tumours in nude mice. […] Statistical analysis was assessed by Student’s t-test.

[3] = LC-MS/MS analysis of SN38 in brain tumours; assay type: in vivo, mouse; details: mice intravenously injected with IF7C(RR)-SN38
[4] = 3.15 μmoles/kg i.v. daily, 9 days, Cremophore EL
[5] = 7.0 μmoles/kg i.v. daily, 6 days, Cremophore EL

CCc1c2c(nc3ccc(OC(=O)C4CCC(CNC(=O)C5CCC(CN6C(=O)CC(SC[C@H](NC(=O)[C@H](CCCNC(=N)N)NC(=O)[C@H](CCC(N)=O)NC(=O)[C@H](Cc7c[nH]c8ccccc78)NC(=O)[C@H](CC(C)C)NC(=O)[C@H](CC(C)C)NC(=O)[C@H](Cc7ccccc7)NC(=O)[C@@H](N)[C@@H](C)CC)C(=O)N[C@@H](CCCNC(=N)N)C(=O)N[C@@H](CCCNC(=N)N)C(=O)O)C6=O)CC5)CC4)cc13)-c1cc3c(c(=O)n1C2)COC(=O)[C@]3(O)CC (stereo partly drawn) [IF7C(RR)-SN38] (H-IFLLWQRC(X1)RR-OH; N-terminus and C-terminus assumed)
B16-Luc brain tumour response during the first week (B16-Luc brain tumours; 10% Solutol HS15): tumours began shrinking during the first week of daily injections | B16-Luc brain tumour, final outcome (B16-Luc brain tumours; 10% Solutol HS15): completely disappeared; also recorded: complete disappearance of brain tumours | survival after cessation of treatment without signs of B16-Luc cell growth (B16-Luc brain tumours; 10% Solutol HS15): more than 3 months | therapeutic effect with Solutol HS15 relative to Cremophore EL (B16-Luc brain tumours; 10% Solutol HS15 in water): significantly improved | B16-Luc brain tumour response, second week without injection (B16-Luc brain tumours; then no drug): continued shrinking during the second week without drug injection | brain tumour growth (photon number) [1, 4]: significantly suppressed tumour growth relative to buffer controls | subcutaneous tumour growth (photon number) [1, 4]: significantly suppressed tumour growth relative to buffer controls | brain versus subcutaneous tumour effect ([1]; 3.15 μmoles/kg, C6-Luc, NOD-SCID): effect of IF7C(RR)-SN38 on brain tumours is comparable to that on subcutaneous tumours | LL/2-Luc tumour formation after s.c. challenge (LL/2-Luc cells): LL/2-Luc tumours grew | logIC50 (B16 cells; B16, 2 days, CellTiter Glo, GraphPad Prism): 2.171 | cytotoxic activity compared with free SN38 (B16 cells; in vitro, B16 cells): comparable to those of free SN38 | logIC50 (C6 cells; C6, 2 days, CellTiter Glo, GraphPad Prism): 1.812 | cytotoxic activity compared with free SN38 (C6 cells; in vitro, C6 cells): comparable to those of free SN38 | brain tumour growth (photon number) [2, 5]: significantly antagonised growth of both brain and subcutaneous tumours compared to buffer controls | subcutaneous tumour growth (photon number) [2, 5]: significantly antagonised growth of both brain and subcutaneous tumours compared to buffer controls | brain versus subcutaneous tumour effect ([2]; 7.0 μmoles/kg, B16-Luc, C57BL/6): effect of IF7C(RR)-SN38 on brain tumours is comparable to that on subcutaneous tumours | CD8+ cell infiltration at injection sites (CD8+ T cells): 92.2 cells/HPF | B16-Luc tumour formation after s.c. rechallenge (B16-Luc cells): B16-Luc tumours did not appear | C6-Luc brain tumour growth (C6-Luc brain tumours): suppressed the tumour growth | complete disappearance of C6-Luc brain tumours (C6-Luc brain tumours): did not promote complete disappearance of brain tumours | SN38 in brain tumours [3]: did not detect SN38 in brain tumours
